This experiment addresses T1, sGC α1/β1 heterodimer (Homo sapiens, UniProt Q02108+Q02153).
T1 construct: expressed in transfected cells; host or cells: CHO-K1 (clone #7, CHO-K1/sGC)
T1 sequence (Q02108 1-690): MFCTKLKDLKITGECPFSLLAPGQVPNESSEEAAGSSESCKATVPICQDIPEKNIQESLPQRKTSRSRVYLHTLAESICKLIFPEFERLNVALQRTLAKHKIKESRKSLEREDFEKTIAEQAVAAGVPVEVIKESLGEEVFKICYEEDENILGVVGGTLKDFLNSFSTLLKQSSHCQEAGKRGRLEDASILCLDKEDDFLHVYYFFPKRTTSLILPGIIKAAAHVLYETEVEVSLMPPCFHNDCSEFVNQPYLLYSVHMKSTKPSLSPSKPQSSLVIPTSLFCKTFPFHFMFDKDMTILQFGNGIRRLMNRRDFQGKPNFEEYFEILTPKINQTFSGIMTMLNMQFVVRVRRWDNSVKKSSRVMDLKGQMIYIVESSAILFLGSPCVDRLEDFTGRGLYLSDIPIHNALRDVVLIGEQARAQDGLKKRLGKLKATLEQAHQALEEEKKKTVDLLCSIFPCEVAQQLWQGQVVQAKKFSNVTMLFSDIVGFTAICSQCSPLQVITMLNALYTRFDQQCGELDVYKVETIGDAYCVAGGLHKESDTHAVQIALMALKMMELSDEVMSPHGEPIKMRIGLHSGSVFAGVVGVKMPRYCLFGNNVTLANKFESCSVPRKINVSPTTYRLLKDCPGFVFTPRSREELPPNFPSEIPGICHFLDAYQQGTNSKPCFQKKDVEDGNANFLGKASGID
T1 sequence (Q02153 1-619): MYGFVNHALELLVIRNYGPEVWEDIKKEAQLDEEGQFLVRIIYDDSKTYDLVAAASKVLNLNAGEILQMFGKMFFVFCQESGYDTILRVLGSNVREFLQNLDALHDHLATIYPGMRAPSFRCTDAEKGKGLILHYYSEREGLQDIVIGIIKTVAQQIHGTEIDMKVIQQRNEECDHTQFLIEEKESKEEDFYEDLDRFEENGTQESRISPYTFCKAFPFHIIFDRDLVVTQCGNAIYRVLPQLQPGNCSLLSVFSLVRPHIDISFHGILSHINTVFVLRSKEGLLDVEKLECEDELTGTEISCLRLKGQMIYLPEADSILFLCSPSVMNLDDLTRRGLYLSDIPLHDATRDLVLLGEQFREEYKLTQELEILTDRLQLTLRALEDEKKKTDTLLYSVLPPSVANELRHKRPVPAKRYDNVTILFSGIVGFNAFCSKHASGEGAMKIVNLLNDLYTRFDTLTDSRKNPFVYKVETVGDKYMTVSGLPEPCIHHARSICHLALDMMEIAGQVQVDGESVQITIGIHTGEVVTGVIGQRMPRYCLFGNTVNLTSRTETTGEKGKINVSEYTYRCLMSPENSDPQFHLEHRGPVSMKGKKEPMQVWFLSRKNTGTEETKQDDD
The experiment is described as follows: Cell-based sGC functional assay (CASA assay): cGMP generation in CHO-K1/sGC cells, HTRF detection. The following applies: for Emax: CHO-K1, percent activation relative to standard Compound A in CHO-K1/sGC cells, read-out: % Act.; for EC50: inflection point (IP) of cGMP generation in CHO-K1/sGC cells, 4P fit, activity expressed as percentage of Compound A; for % Act.: percent activation relative to standard Compound A in CHO-K1/sGC cells. The source says: Biological Assay 1: Cell-Based sGC Functional Assay (CASA Assay)
sGC is a heme-containing enzyme that converts GTP to secondary messenger cGMP. Increases in cGMP levels affect several physiological processes including vasorelaxation through multiple downstream pathways. […] Heme-dependent activators (HDAs) preferentially activate sGC containing a ferrous heme group. To determine the effect of sGC activators on enzyme activity, the CASA assay was developed to monitor the generation of cGMP in a cell line that stably expresses the heterodimeric sGC protein.
A CHO-K1 cell line stably expressing the sGC α1/β1 heterodimer was generated using a standard transfection protocol. CHO-K1 cells were transfected with plasmids pIREShyghsGCal and pIRESneo-hsGCβ1 simultaneously using FUGENE reagent. Clones that stably express both subunits were selected with hygromycin and neomycin for 2 weeks. Clone #7 was chosen for the assay and was designated CHO-K1/sGC. CHO-K1/sGC cells were maintained in F-K12 medium containing 10% heat-inactivated Fetal Bovine Serum (FBS), 100 μg/mL penicillin/streptomycin, 0.5 mg/mL hygromycin and 0.25 mg/mL G418. The cells were then cryopreserved in LN2. On the day of the assay, cells thawed and resuspended in EBSS Assay Buffer (Sigma, E3024) supplemented with 5 mM MgCl2, 10 mM HEPES (4-(2-hydroxyethyl)piperazine-1-ethanesulfonic acid) and 0.05% BSA (bovine serum albumin) (EAB) and cell density was then adjusted to 4×10^5/mL with EAR IBMX (3-isobutyl-1-methylxanthin, 0.5 mM) was added to inhibit degradation of cGMP. Compounds were diluted from DMSO stock solutions and added to the assay at a final DMSO concentration of 2.5%. Cells were incubated with compounds in the presence and absence of 1 μM of Diethylenetriamine/nitric oxide adduct (DETA-NO; Sigma, 17018) for 1 hr at 37° C. At the end of the incubation period, the reaction was terminated and the cells were lysed with the detection reagents from Cisbio Kits. The level of intracellular cGMP was determined using an HTRF-based assay kit (CisBio, 62GM2PEC), which detects the displacement of a fluorescence labeled cGMP from its specific antibody. The cGMP produced by test compounds was directly compared to the maximum cGMP production (this value was set to equal 100% activation.) of the published sGC-HDA Compound A:
[drawing 597] (Example 1 in WO 2010/065275, published Jun. 10, 2010). The test compounds' activities were then expressed as a percentage of Compound A, the standard in every experiment. This percent activation was calculated either in the presence or absence of DETA-NO which was then plotted. IP and maximum fold induction was derived using ADA analysis software for 4P fit.
The compounds in the Examples of the instant invention had inflection points (IP) less than or equal to 10 μM and more particularly less than or equal to about 1 μM.
(In general: TR-FRET usually uses a lanthanide donor and a delayed reading to cut background.)

The term EC50 denotes the midpoint of the concentration-response curve. The low end stands for an effect from little substance, the high end for a need for much substance.

As to `CC1(c2ccc(Cl)cc2)C(=O)Nc2nc(-c3cn4ccnc4cn3)nc(N3CCC(C(F)(F)F)C3)c21` (racemic) [Example 279A, 5-(4-chlorophenyl)-2-(imidazo[1,2-a]pyrazin-6-yl)-5-methyl-4-(3-(trifluoromethyl)pyrrolidin-1-yl)-5H-pyrrolo[2,3-d]pyrimidin-6(7H)-one], the Emax is 69% and it took 58 nM to reach a half-maximal effect (EC50).

As to `CC1(C(=O)NC2CC2)C(=O)Nc2nc(-c3cn4ccnc4c(Cc4cccc(F)c4)n3)nc(N)c21` (single isomer, unassigned) [Example 31A, 4-Amino-N-cyclopropyl-2-(8-(3-fluorobenzyl)imidazo[1,2-a]pyrazin-6-yl)-5-methyl-6-oxo-6,7-dihydro-5H-pyrrolo[2,3-d]pyrimidine-5-carboxamide], the Emax was 141% and the EC50 was 46 nM.

Consider `CC1(C(=O)NC2CC2)C(=O)Nc2nc(-c3cn4ccnc4c(Cc4cccc(F)c4)n3)nc(N)c21` (single isomer, unassigned) [Example 36A, 4-amino-N-cyclopropyl-2-(8-(3-fluorobenzyl)imidazo[1,2-a]pyrazin-6-yl)-5-methyl-6-oxo-6,7-dihydro-5H-pyrrolo[2,3-d]pyrimidine-5-carboxamide], for which it took 304 nM to reach a half-maximal effect (EC50) and the “% Act.” value amounted to 151%.

For `CC1(C(=O)NC2CC2)C(=O)Nc2nc(-c3cn4ccnc4c(Cc4cccc(F)c4)n3)nc(N)c21` (single isomer, unassigned) [Example 36B, 4-amino-N-cyclopropyl-2-(8-(3-fluorobenzyl)imidazo[1,2-a]pyrazin-6-yl)-5-methyl-6-oxo-6,7-dihydro-5H-pyrrolo[2,3-d]pyrimidine-5-carboxamide], the midpoint of the response, the EC50, lay at 959 nM and the “% Act.” value amounted to 154%.

`Nc1nc(-c2cn3ccnc3c(Cc3cccc(F)c3)n2)nc2c1C(C(=O)NC1CC1)(C1CC1)C(=O)N2` (single isomer, unassigned) [Example 38A, 4-amino-N,5-dicyclopropyl-2-(8-(3-fluorobenzyl)imidazo[1,2-a]pyrazin-6-yl)-6-oxo-6,7-dihydro-5H-pyrrolo[2,3-d]pyrimidine-5-carboxamide]: the EC50 is 61 nM and the “% Act.” value worked out at 124%.

Consider `Nc1nc(-c2cn3ccnc3c(Cc3ccccc3)n2)nc2c1C(C(=O)NC1CC1)(C1CC1)C(=O)N2` (single isomer, unassigned) [Example 40A, 4-amino-2-(8-benzylimidazo[1,2-a]pyrazin-6-yl)-N,5-dicyclopropyl-6-oxo-6,7-dihydro-5H-pyrrolo[2,3-d]pyrimidine-5-carboxamide], for which the EC50 was found to be 53 nM and the “% Act.” value worked out at 138%.

With `Nc1nc(-c2cn3ccnc3c(Cc3ccccc3)n2)nc2c1C(C(=O)NC1CC1)(C1CC1)C(=O)N2` (single isomer, unassigned) [Example 40B, 4-amino-2-(8-benzylimidazo[1,2-a]pyrazin-6-yl)-N,5-dicyclopropyl-6-oxo-6,7-dihydro-5H-pyrrolo[2,3-d]pyrimidine-5-carboxamide], the Emax came out at 127% and the EC50 amounted to 27 nM.

With `Nc1nc(-c2cn3cc(C(F)(F)F)nc3c(Cc3ccccc3F)n2)nc2c1C(C(=O)NC1CC1)(C1CC1)C(=O)N2` (single isomer, unassigned) [Example 45B, 4-amino-N,5-dicyclopropyl-2-(8-(2-fluorobenzyl)-2-(trifluoromethyl)imidazo[1,2-a]pyrazin-6-yl)-6-oxo-6,7-dihydro-5H-pyrrolo[2,3-d]pyrimidine-5-carboxamide], the Emax was found to be 75% and the EC50 was 217 nM.

Take `Nc1nc(-c2cn3ccnc3c(CCC(F)(F)C(F)(F)F)n2)nc2c1C(C(=O)NC1CC1)(C1CC1)C(=O)N2` (single isomer, unassigned) [Example 61B, 4-amino-N,5-dicyclopropyl-6-oxo-2-(8-(3,3,4,4,4-pentafluorobutyl)imidazo[1,2-a]pyrazin-6-yl)-6,7-dihydro-5H-pyrrolo[2,3-d]pyrimidine-5-carboxamide]: a half-maximal effect (EC50) was put at 450 nM and the “% Act.” value came to 83%.
